Reference: US20200231685A1, “CONJUGATES FOR TREATING INFLAMMATORY DISEASE AND IDENTIFICATION OF PATIENTS LIKELY TO BENEFIT FROM SUCH TREATMENT” (The University of Bristol, priority 2013, published 2020)

Columns and labels:
[1] = tested on: Experimental Autoimmune Uveitis (EAU); assay type: in vivo, mouse; details: Day 18; PMA and ionomycin 4 hours
Th0 (CCR6-) cells = test: Intracellular IFNγ expression by flow cytometry in human Th0 cultures; assay type: cell-based; details: 24 hrs incubation
Source text: (§1) FIGS. 23A-23B show suppression of IL-17A in human Th17 (CCR6+) cells and IFNγ cytokine production in human Th0 (CCR6^−) and Th17 cells. CCR6 positive and CCR6 negative CD4^+ T cells were purified and cultured in the presence of polarising cytokines for two weeks. […] Intracellular cytokines were quantified by flow cytometry (FIG. 23A) and percentage suppression calculated in relation to an untreated control (FIG. 23B). Data represents the mean expression of three to four normal volunteers, with error expressed as standard deviation.
Cell Cultures. Murine Naive T cells were obtained from lymph nodes and spleens of OT-II/3A9 mice using CD4 positive selection kits following the manufacturer's instructions (Miltenyi Biotech). Splenocytes from respective wild-type mice were irradiated and mixed with the CD4^+ T cells at a 1:10 ratio. […] All cells were kept in a 37° C., 5% CO2 humidified incubator. Cells were used after two rounds of activation. […]

CD4+ T cells = test: Inhibition of isolated CD4+ T cell proliferation (tritiated thymidine incorporation); assay type: cell-based, human
Description: Proliferation was measured by tritiated thymidine incorporation (ccpm). Data represents the mean of two normal volunteers, with error expressed as standard deviation.
T Cell Proliferation Assays. T cell proliferation was measured by pulsing with 18.5 kBq [^3H] thymidine (GE Healthcare, US) per well for the final 12 hours of cultures and determining thymidine uptake in counts per minute (c.p.m).

Th17 (CCR6+) cells = test: Intracellular IL-17 / IFN-γ expression by flow cytometry in human Th17 cultures; assay type: cell-based
Source text: Absolute expression was plotted on a log2 scale colour coded from low to high expression. […] All data are represented as mean±SEM.
as §1, with “CCR6” for “FIGS. 23A-23B show suppression of IL-17A in human Th17 (CCR6+) cells and IFNγ cytokine production in human Th0 (CCR6^−) and Th17 cells. CCR6”
Therefore, to determine whether in vitro, human CD4+Th17 T cells were responsive to glucocorticoids, we generated an IL-17 secreting CD4+ T cell subset using the innate expression of CCR6. […] As a result of glucocorticoid binding the glucocorticoid receptor (GR), the GR translocates to the nucleus and binds to glucocorticoid-response elements within the DNA. […] We then compared the translocation of the GR in Th17 and Th0 cells.
Cell Cultures. Murine Naive T cells were obtained from lymph nodes and spleens of OT-II/3A9 mice using CD4 positive selection kits following the manufacturer's instructions (Miltenyi Biotech). Splenocytes from respective wild-type mice were irradiated and mixed with the CD4^+ T cells at a 1:10 ratio. […] All cells were kept in a 37° C., 5% CO2 humidified incubator. Cells were used after two rounds of activation. Human peripheral CD4^+CCR6^− (Th0) and CD4^+CCR6^+ (Th17) cells were FACS sorted, resuspended to 2×10^6cells/ml in complete RPMI-1640 (Invitrogen) supplemented with 10% FCS, L-glutamine and Penicillin/streptomycin (all PAA Laboratories Ltd, UK), stimulated with plate-bound 5 μg/ml anti-CD3 and 5 μg/ml anti-CD28 antibodies (eBioscience, US) (Th0) or with plate-bound antibodies and a polarizing cytokine cocktail of 20 ng/ml IL-6, 10 ng/ml IL-23, 10 ng/ml IL-1β (R&D Systems, US), 100 ng/ml anti-IFN-γ, 100 ng/ml anti-IL-4 (eBioscience, US) (Th17) for 3 days. […]

For C[C@@H]1C[C@H]2[C@@H]3CCC4=CC(=O)C=C[C@]4(C)[C@@]3(F)[C@@H](O)C[C@]2(C)[C@@]1(O)C(=O)CO [Dex, dexamethasone], the “suppression of IFN-γ expression in eye infiltrating CD4+ cells” value [1] was 45%.

For C=CC[C@@H]1/C=C(\C)C[C@H](C)C[C@H](OC)[C@H]2O[C@@](O)(C(=O)C(=O)N3CCCC[C@H]3C(=O)O[C@H](/C(C)=C/[C@@H]3CC[C@@H](O)[C@H](OC)C3)[C@H](C)[C@@H](O)CC1=O)[C@H](C)C[C@@H]2OC [tacrolimus], the “suppression of IFNγ production in Th0 (CCR6-) cells” value (Th0 (CCR6-) cells) was “equally suppress”, the “concentration for full inhibition of CD4+ cell proliferation, lower compared with cyclosporine A” value (CD4+ T cells) was 20 fold and the “dose achieving the same inhibition of CD4+ T cell proliferation” value (CD4+ T cells) was 10 ng/mL. For the same molecule, the “suppression of IFNγ production in Th17 cells” value (Th17 (CCR6+) cells; 24 hrs incubation) was “equally suppress”, the “suppression of IL-17A production in Th17 (CCR6+) cells” value (Th17 (CCR6+) cells; 24 hrs incubation) was “equally suppress” and the “dose required for cytokine suppression, less than cyclosporine A” value (Th17 (CCR6+) cells; IL-17 in Th17, IFNγ in Th17 and Th0 cells) was 20 ×.
